# Source: patent US8674113B2, “Compounds” (Boehringer Ingelheim International GmbH, priority 2010, dated 2014)
# Key:
# [1] = biological target: recombinant human mPGES-1 (Homo sapiens (Human), UniProt O14684); assay: mPGES-1 enzyme assay (HTRF detection of PGE2); type: biochemical; settings: recombinant human mPGES-1 microsomes, PGH2 2 μM, 60 seconds; read-out: mPGES-1 inhibitory effect IC50 in the enzyme assay
# Experimental: Microsomes from Rosetta E. coli bacteria expressing recombinant human mPGES-1 can be derived as described below:
# Inoculate 5 ml LB with Ampicilin (50 μg/ml) and Chloramphenicol (34 μg/ml) with bacteria from freeze culture. Incubate 8 h at 37° C. with 200 rpm. Thereafter, inoculate 500-1000 ml LB containing Amp and Chloro with the 5 ml on culture and grow to OD640 of 0.8-1.0. Chill the culture to +4° C. before induction. Induce the culture with IPTG at a final concentration of 400 μM. Express the protein at room temp 18-23° C. with 200 rpm shaking over night.
# The following steps can be performed on the following day: • 1. Spin down the cells in 250 ml centrifuge flasks for 15 min at 7000 rpm (Beckmann Coulte Avanti J-E centrifuge) • 2. Dissolve the pellet from 250 ml culture in 12.5 ml homogenization buffer • 3. (15 mM Tris-HCL pH8, 1 mM EDTA pH8, […], 2.5 mM GSH, 1 Tablet Protease inhibitor per 50 ml buffer) • 4. Disintegrate the cells by sonication, 5×10 seconds at 48% amplitude of a 750 W sonifier • 5. Add 2.5 ml MgCl2 (100 mM) and DNase 12.5 μl (0.8 mg/ml) and incubate on ice for 30 min • 6. Spin down the bacteria debris and save the supernatant, 7000 rpm for 15 min • 7. Isolate the protein containing membranes in the supernatant by ultracentrifugation 120000×g for 2 hour at 4° C. (Sorvall T880 rotor). • 8. Discard the supernatant and dissolve the pellet in 20 mM Potassium phosphate buffer pH7.4 (KH2PO4 and K2HPO4) buffer by sonication (5×10 s, 30% of a 50 W sonifier) and aliquot the enzyme and store aliquots at −80° C.
# Before each experiment is performed an aliquot of the enzyme is thawed and it can then be dissolved in 0.1 M Potassium phosphate buffer pH7.4 (KH2PO4 and K2HPO4) buffer containing 2.5 mM GSH.
# The aim of this assay is to determine the affinity of a test compound for the mPGES-1 enzyme.
# 47 μl of recombinant human mPGES-1 (˜0.5 μg protein/well) containing microsomal suspension in a buffer containing GSH, (2.5 mmol/L L-Glutathione reduced, dissolved in 0.1 mol/L Phosphat Buffer pH 7.4) is dispensed in a 384-well plate and thereafter 1 μl of the test compound(s) is/are added and incubated for 25 minutes at room temperature. The enzyme reaction is started by the addition of 2 ul PGH2 (final conc 2 μM) disolved in water-free Diglyme. After 60 seconds the reaction is terminated by addition of a stop solution containing FeCl2 (10 μL 0.074 mol/l FeCl2). The samples are diluted between 1:25 in PBS (Phosphate Buffered Saline). 10 μl of the diluted samples are transferred to 384-well low volume plate. In order to quantify the amount of PGE2 that has been formed, a homogenous time resolved fluorescent (HTRF) detecting of PGE2 has been performed using a commercially available kit from Cisbio according to the manufactures recommendation. This HTRF-based assay has been described in detail (see: Goedken et al., J Biomol Screen, 2008, 13(7), 619-625). Briefly, the diluted samples are mixed with 5 μl PGE2-d2 conjugate and 5 μl anti-PGE2 cryptate conjugate. After an incubation period of the plates over night, the fluorescence is measured by the use of an appropriate microplate reader.
# The fluorescence of Europium cryptate (maxex=307 nm, maxem=620 nm) and d2-PGE2 (maxex=620 nm, maxem=665 nm) are measured.
# The extent of the specific HTRF is measured as a ratio of the emission intensity at 665 nm vs. that at 620 nm at an excitation puts of 320 nm. The quantification plate contains also wells with different concentrations of PGE2 as calibration curve for the calculation of the PGE2 concentrations from the HTRF ratio values.
# From all mPGES enzyme assay the background is subtracted and the IC50 is calculated over a nonlinear regression with conventional software.
# mPGES-1 in A549 cells = mPGES-1 in A549 cells (Homo sapiens (Human), UniProt O14684); assay: A549 cell-based assay (PGE2 formation, 50% human serum); settings: IL-1β 5 ng/ml, 10 nM arachidonic acid, 20-24 h, read-out: mPGES-1 inhibitory effect IC50 in the cell assay
# mPGES-1 in A549 cells, sequence (O14684 whole entry): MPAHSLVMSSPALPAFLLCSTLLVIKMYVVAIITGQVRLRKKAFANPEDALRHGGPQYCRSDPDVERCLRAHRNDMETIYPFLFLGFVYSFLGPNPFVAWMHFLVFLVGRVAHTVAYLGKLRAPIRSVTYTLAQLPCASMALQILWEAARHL
# Outline: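 A549 cells in F-12K with 50% human serum were stimulated 20-24 h with 5 ng/ml IL-1β and 10 nM arachidonic acid in presence of compound or vehicle. PGE2 in the cell-free medium was measured by HTRF, normalised to vehicle (100%). IC50 from 6-8 point titrations.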
# recombinant human mPGES-1, sequence (O14684 whole entry): as above
SMILES,IC50 [1],IC50 (mPGES-1 in A549 cells)
CC(C)C(NC(=O)c1cc2nc(Nc3c(Cl)ccc(CNC(=O)C(C)(C)C)c3Cl)n(C)c2cc1N1CCC(F)(F)C1)C(F)(F)F (centres unmarked) [Example 49],4 nM,4 nM
Cn1c(Nc2c(Cl)ccc(CNC(=O)C(C)(C)C)c2Cl)nc2cc(C(=O)NCC(F)(F)C(F)(F)F)c(N3CCC(F)(F)C3)cc21 [Example 50],3 nM,2 nM
Cn1c(Nc2c(Cl)ccc(CNC(=O)C(C)(C)C)c2F)nc2cc(C(=O)Nc3ccc(F)c(Cl)c3)c(N3CCC(F)(F)C3)cc21 [Example 51],3 nM,< 1 nM
Cn1c(Nc2c(Cl)ccc(CNC(=O)C(C)(C)C)c2Cl)nc2cc(C(=O)NCC(F)(F)C(F)(F)F)c(N3CCC(C(F)(F)F)CC3)cc21 [Example 53],2 nM,1 nM
"Cn1c(Nc2c(Cl)ccc(CNC(=O)C(C)(C)C)c2Cl)nc2cc(C(=O)Nc3ccc(F)c(Cl)c3)c(N3CCC(C(F)(F)F)CC3)cc21 [Example 54, N-(3-Chloro-4-fluoro-phenyl)-2-{2,6-dichloro-3-[(2,2-dimethyl-propionylamino)-methyl]-phenylamino}-6-[4-trifluoromethyl-piperidinyl]-1-methyl-1H-benzimidazole-5-carboxylic acid amide]",2 nM,1.4 nM
Cn1c(Nc2c(Cl)ccc(CNC(=O)C(C)(C)C)c2Cl)nc2cc(C(=O)Nc3cccc(C(F)(F)F)n3)c(N3CCC(C(F)(F)F)CC3)cc21 [Example 55],2 nM,5 nM
Cn1c(Nc2c(Cl)ccc(CNC(=O)C(C)(C)C)c2Cl)nc2cc(C(=O)Nc3ccc(Cl)c(F)c3)c(N3CCC(C(F)(F)F)CC3)cc21 [Example 56],1 nM,< 1 nM
Cn1c(Nc2c(Cl)ccc(CNC(=O)C(C)(C)C)c2Cl)nc2cc(C(=O)Nc3ccc(OC(F)(F)F)cc3)c(N3CCC(C(F)(F)F)CC3)cc21 [Example 57],1 nM,1 nM
Cn1c(Nc2c(Cl)ccc(CNC(=O)C(C)(C)C)c2Cl)nc2cc(C(=O)NC3(c4ccc(F)cc4)CC3)c(N3CCC(C(F)(F)F)CC3)cc21 [Example 58],3 nM,1 nM
Cn1c(Nc2c(Cl)ccc(CNC(=O)C(C)(C)C)c2Cl)nc2cc(C(=O)NC3CCN(CC(F)(F)F)CC3)c(N3CCC(C(F)(F)F)CC3)cc21 [Example 59],4 nM,< 1 nM
Cn1c(Nc2c(Cl)ccc(CNC(=O)C(C)(C)C)c2Cl)nc2cc(C(=O)NC3CCC(F)(F)CC3)c(N3CCC(C(F)(F)F)CC3)cc21 [Example 60],1 nM,1 nM
Cn1c(Nc2c(Cl)ccc(CNC(=O)C(C)(C)C)c2Cl)nc2cc(C(=O)N[C@H]3CC[C@@H](C(F)(F)F)CC3)c(N3CCC(C(F)(F)F)CC3)cc21 [Example 61],2 nM,< 1 nM
Cn1c(Nc2c(Cl)ccc(CNC(=O)C(C)(C)C)c2Cl)nc2cc(C(=O)NCCC(F)(F)F)c(N3CCC(C(F)(F)F)CC3)cc21 [Example 62],2 nM,< 1 nM
Cn1c(Nc2c(Cl)ccc(CNC(=O)C(C)(C)C)c2Cl)nc2cc(C(=O)N[C@H]3CC[C@@H](C(F)(F)F)CC3)c(N3CC4CC4C3)cc21 (some centres unmarked) [Example 63],3 nM,6 nM
Cn1c(Nc2c(Cl)ccc(CNC(=O)C(C)(C)C)c2Cl)nc2cc(C(=O)Nc3ccc(OC(F)(F)F)cc3)c(N3CC4CC4C3)cc21 (centres unmarked) [Example 64],3 nM,2.6 nM
Cn1c(Nc2c(Cl)ccc(CNC(=O)C(C)(C)C)c2Cl)nc2cc(C(=O)Nc3ccc(F)c(Cl)c3)c(N3CC4CC4C3)cc21 (centres unmarked) [Example 65],1 nM,1 nM

SMILES,IC50 [1],IC50 (mPGES-1 in A549 cells)
Cn1c(Nc2c(Cl)ccc(CNC(=O)C(C)(C)C)c2Cl)nc2cc(C(=O)Nc3ccc(Cl)c(F)c3)c(N3CC4CC4C3)cc21 (centres unmarked) [Example 66],3 nM,1.6 nM
Cn1c(Nc2c(Cl)ccc(CNC(=O)C(C)(C)C)c2Cl)nc2cc(C(=O)N[C@H]3CC[C@H](C(F)(F)F)CC3)c(N3CCOCC3)cc21 [Example 67],4 nM,2 nM
Cn1c(Nc2c(Cl)ccc(CNC(=O)C(C)(C)C)c2Cl)nc2cc(C(=O)NCC(F)(F)C(F)(F)F)c(N3CCOCC3)cc21 [Example 68],4 nM,1 nM
Cn1c(Nc2c(Cl)ccc(CNC(=O)C(C)(C)C)c2Cl)nc2cc(C(=O)N[C@H]3CC[C@H](C(F)(F)F)CC3)c(N3CCC(F)(F)CC3)cc21 [Example 69],2 nM,1 nM
Cn1c(Nc2c(Cl)ccc(CNC(=O)C(C)(C)C)c2Cl)nc2cc(C(=O)NCC(F)(F)C(F)(F)F)c(N3CCC(F)(F)CC3)cc21 [Example 70],2 nM,2 nM
CC(C)(C)C(=O)NCc1ccc(Cl)c(Nc2nc3cc(C(=O)NCC(F)(F)C(F)(F)F)c(N4CCOCC4)cc3n2CC(F)F)c1Cl [Example 72],4 nM,4 nM
CC(C)(C)C(=O)NCc1ccc(Cl)c(Nc2nc3cc(C(=O)NCC(F)(F)C(F)(F)F)c(N4CCC(F)(F)CC4)cc3n2CC(F)F)c1Cl [Example 74],3 nM,4 nM
CC(C)(C)C(=O)NCc1ccc(Cl)c(Nc2nc3cc(C(=O)N[C@H]4CC[C@H](C(F)(F)F)CC4)c(N4CCC(C(F)(F)F)CC4)cc3n2CC(F)F)c1Cl [Example 75],1 nM,2 nM
CC(C)(C)C(=O)NCc1ccc(Cl)c(Nc2nc3cc(C(=O)NCC(F)(F)C(F)(F)F)c(N4CCC(C(F)(F)F)CC4)cc3n2CC(F)F)c1Cl [Example 76],1 nM,1 nM
CC1(O)CCN(c2cc3c(cc2C(=O)N[C@H]2CC[C@H](C(F)(F)F)CC2)nc(Nc2c(Cl)ccc(CNC(=O)C(C)(C)F)c2Cl)n3CC(F)F)CC1 [Example 78],2 nM,< 1 nM
CC(C)(C)C(=O)NCc1ccc(Cl)c(Nc2nc3cc(C(=O)N[C@H]4CC[C@H](C(F)(F)F)CC4)c(N4CC[C@@H](F)C4)cc3n2CC(F)F)c1Cl [Example 79],3 nM,1 nM
CC(C)(F)C(=O)NCc1ccc(Cl)c(Nc2nc3cc(C(=O)N[C@H]4CC[C@H](C(F)(F)F)CC4)c(N4CCC(O)(C(F)(F)F)CC4)cc3n2CC(F)F)c1Cl [Example 80],2 nM,1 nM
"Cn1c(Nc2c(Cl)ccc(CNC(=O)C(C)(C)C)c2Cl)nc2cc(C(=O)NCCC(F)(F)F)c(N3CCCC(C(F)(F)F)C3)cc21 (centres unmarked) [Example 81, N-(3,3,3-Trifluoropropyl)-2-{2,6-dichloro-3-[(2,2-dimethyl-propionylamino)-methyl]-phenylamino}-6-[3-trifluoromethyl-piperidinyl]-1-methyl-1H-benzimidazole-5-carboxylic acid amide]",4 nM,< 1 nM
Cn1c(Nc2c(Cl)ccc(CNC(=O)C(C)(C)C)c2Cl)nc2cc(C(=O)N[C@H]3CC[C@H](C(F)(F)F)CC3)c(N3CCC(O)(C(F)(F)F)CC3)cc21 [Example 82],3 nM,1 nM
Cn1c(Nc2c(Cl)ccc(CNC(=O)C(C)(C)C)c2Cl)nc2cc(C(=O)N[C@H]3CC[C@H](C(F)(F)F)CC3)c(N3CCC(C)(O)C3)cc21 (some centres unmarked) [Example 83],2 nM,1.4 nM
